The values below come from patent US20040018560A1, “Crystallized LXR polypeptide in complex with a ligand and screening methods employing same” (priority 2002, published 2004).

The labels stand for the following.
B1: human LXRβ LBD (ligand binding domain) containing amino acids 214-462 (receptor)
chain: GSEGEGVQLTAAQELMIQQLVAAQLQCNKRSFSDQPKVTPWPLGADPQSRDARQQRFAHFTELAIISVQEIVDFAKQVPGFLQLGREDQIALLKASTIEIMLLETARRYNHETECITFLKDFTYSKDDFHRAGLQVEFINPIFEFSRAMRRLGLDDAEYALLIAINIFSADRPNVQEPGRVEALQQPYVEALLSYTRIKRPQDQLRFPRMLMKLVSLRTLSSVHSEQVFALRLQDKKLPPLLSEIWDVHE
notes: It is entered here as the monomer, so that self-association is the pair m1-m1; also called LXR LBD

Data set [1] has as its system LXR. Briefly: Co-activator recruitment by LXR. The class given is biochemical.
For data set [2], the system named is LXR. Briefly: Ligand binding to LXR.
Data set [3] concerns LXR. The settings on record: both LXR subtypes; compared with the natural ligands; cited from earlier work.
In the next data set the target is T1, human LXRα LBD (Homo sapiens, UniProt Q13133, H421A).
T1 construct: LXRα (amino acids 164-447); expressed in transfected cells; host or cells: CV-1 cells
T1 sequence (Q13133 164-447 H421A): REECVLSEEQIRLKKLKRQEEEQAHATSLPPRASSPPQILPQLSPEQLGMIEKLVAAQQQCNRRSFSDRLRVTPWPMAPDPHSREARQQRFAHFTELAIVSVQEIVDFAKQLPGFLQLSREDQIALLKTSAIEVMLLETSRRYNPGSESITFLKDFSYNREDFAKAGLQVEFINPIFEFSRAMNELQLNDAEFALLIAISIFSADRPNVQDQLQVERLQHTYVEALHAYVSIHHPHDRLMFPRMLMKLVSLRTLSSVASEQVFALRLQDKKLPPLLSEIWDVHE
Briefly: Gal4-LXRα LBD (wild type and mutant) transactivation, SPAP reporter, transient transfection in CV-1 cells. The settings on record: compound 10 μM, 18 hours. Format: cell-based. On the procedure:
FIG. 7A is a bar graph depicting the effect of mutating LXR LBD pocket residues on transcriptional activity, which was determined by measuring the amount of SPAP synthesized in CV-1 cells by a transiently transfected Gal4 fusion of LXRα LBD.
(§1) To explore these differences, site directed mutants were made targeting specific pocket residues that interacted more directly with one compound than the other. […] However, the gauche conformation of I317 extended into a pocket near the beta turn. […] By contrast, O3 of EPC extended into a hydrophilic pocket (see FIG. 6B) which includes residues E281 (E267α), E315 (E301α), and R319 (R305α). Mutations in this region permit identification of the necessary polar interactions for EPC binding. The transactivation capability of gal4-fusions of wild-type and mutant LXRα and LXRβ LBDs were measured by their ability to transcribe secreted placental alkaline phosphatase (SPAP) on a UAS-tk promoter in transient transfection experiments in CV-1 cells. See Laboratory Example 4. […]
(§2) Wild type and mutant LXR transactivation activity was measured in CV-1 cells. […]
(§3) Alkaline phosphatase activity was assayed by adding 200 μl substrate (7 mM p-nitrophenyl phosphate in 1 M diethanolamine/0.28 M sodium chloride/0.5 mM magnesium chloride, pH 9.85) to each well of the plates, incubating at room temperature, and reading absorbance at 405 nm. […]

The subject of data set [4] is LXR. Kind of data set: LXR activation (general statements, literature).
Data set [5] deals with T2, human LXRβ LBD (Homo sapiens, UniProt P55055, H434A).
T2 construct: LXRβ (amino acids 155-462); expressed in transfected cells; host or cells: CV-1 cells
T2 sequence (P55055 155-460 H434A): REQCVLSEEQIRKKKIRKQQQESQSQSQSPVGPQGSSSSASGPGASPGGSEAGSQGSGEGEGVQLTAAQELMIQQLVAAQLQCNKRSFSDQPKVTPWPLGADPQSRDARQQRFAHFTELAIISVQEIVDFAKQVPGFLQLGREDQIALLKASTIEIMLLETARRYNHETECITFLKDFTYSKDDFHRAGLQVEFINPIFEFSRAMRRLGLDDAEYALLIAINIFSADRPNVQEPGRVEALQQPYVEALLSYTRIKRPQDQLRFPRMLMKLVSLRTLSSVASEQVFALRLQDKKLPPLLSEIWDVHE
Briefly: Gal4-LXRβ LBD (wild type and mutant) transactivation, SPAP reporter, transient transfection in CV-1 cells. The settings on record: LXRβ H435A mutant LBD, compound 10 μM, 18 hours. The class given is cell-based. The procedure: (§4) FIG. 7B is a bar graph depicting the effect of mutating LXR LBD pocket residues on transcriptional activity, which was determined by measuring the amount of SPAP synthesized in CV-1 cells by a transiently transfected Gal4 fusion of LXRβ LBD.
as §1, §2, §3

Data set [6] addresses T3, human LXRβ LBD (Homo sapiens, UniProt P55055, Y334W).
T3 construct: LXRβ (amino acids 155-462); expressed in transfected cells; host or cells: CV-1 cells
T3 sequence (P55055 155-460 Y334W): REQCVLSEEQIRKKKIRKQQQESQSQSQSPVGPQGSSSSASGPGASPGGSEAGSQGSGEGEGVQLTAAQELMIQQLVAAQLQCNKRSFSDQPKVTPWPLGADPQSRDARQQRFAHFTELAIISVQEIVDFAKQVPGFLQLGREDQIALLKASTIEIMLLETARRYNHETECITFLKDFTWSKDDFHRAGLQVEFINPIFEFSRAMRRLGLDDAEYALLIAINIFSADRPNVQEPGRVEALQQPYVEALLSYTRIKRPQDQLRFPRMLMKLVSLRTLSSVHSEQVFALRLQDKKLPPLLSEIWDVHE
The description is as above. The class given is cell-based. As to conditions: LXRβ Y335W mutant LBD, compound 10 μM, 18 hours. The procedure:
as §4, §1, §2, §3

Data set [7] concerns the molecule itself. Kind of data set: X-ray crystal structures, homodimer in the asymmetric unit.
Data set [8] has as its target B1. Kind of data set: X-ray co-crystal structure, LXRβ LBD with EPC and SRC1 peptide. The procedure:
Crystallization trials were carried out using the hanging drop method by mixing 2 μl of protein solution with 2 μl of well buffer. Both the LXRβ/ligand complexes crystallized out of 10-12% PEG 3350-8000 with 0.2M salt at 40° C. Usable LXRβ/T0901317 crystals were obtained from a number of salts including NaF, KF, NaCl, KCl, Na formate, Na acetate, and K acetate. The best LXRβ/EPC (24(S), 25-epoxycholesterol) crystals were obtained with ammonium sulfate and lithium sulfate salts. All crystals took 4-6 weeks to grow. Crystals were frozen in LN₂ after transferring stepwise to a cryo buffer containing the well buffer with 30% PEG 400.

Turning to `CC(C)CCC[C@@H](C)[C@H]1CC[C@H]2[C@@H]3CC=C4C[C@@H](O)CC[C@]4(C)[C@H]3CC[C@]12C` [cholesterol], the recruitment of co-activator entry in the data set on LXR [1] was “do not recruit co-activator”. For the same molecule, in the data set with LXR [2], the “binding to LXR” value was “do bind to LXR”.

As for `O=S(=O)(c1ccccc1)N(CC(F)(F)F)c1ccc(C(O)(C(F)(F)F)C(F)(F)F)cc1` [T317, N-(2,2,2-trifluoroethyl)-N-[4-(2,2,2-trifluoro-1-hydroxy-1-trifluoromethyl-ethyl)-phenyl]-benzenesulfonamide], the “potency in activating both LXRs” value in the data set with LXR [3] is listed as “as potent”. For the same molecule, the “transcriptional activity (SPAP) with H421A mutant” value at human LXRα LBD is “completely knocked out the activity”. Moreover, the “efficacy of LXR activation” value with LXR [4] was “efficacious”. For the same molecule, at human LXRβ LBD [5], the “transcriptional activity (SPAP) with H435A mutant” value is on record as “completely knocked out the activity”. For the same molecule, the “transcriptional activity (SPAP) with Y335W mutant” value at human LXRβ LBD [6] was “some modulation”. In the data set on LXR [2], the “binding to LXR” value was “bound tightly”.

Take B1: in data set [7], the binding result is recorded as “binds”.

On to CPSSHSSLTERHKILHRLLQQGSPS (also called SRC1(2); SRC peptide) [SRC1 peptide (second LXXLL motif of the nuclear receptor co-activator SRC-1)], for which the binding result in data set [8] is on record as “binds”.
